Measured values: patent US20080268451A1, “MEASUREMENT OF AN INSOLUBLE ANALYTE IN A SAMPLE” (priority 2007, published 2008)

Columns and labels:
[1] = system: Cyp2A337; settings: canine hepatocytes, 0-10 μM rifampicin, qNPA
[2] = system: Cyp1A1; experiment: qNPA gene expression, rifampicin-treated canine hepatocytes; type: cell-based; settings: 0-10 μM rifampicin
[3] = system: Cyp2B6; experiment: qNPA gene expression, rifampicin-treated human primary liver cells; settings: 0-10 μM rifampicin
[4] = system: Cyp2D6; experiment: as above; settings: 0-10 μM rifampicin
[5] = system: Cyp2D15; experiment: qNPA gene expression, rifampicin-treated canine hepatocytes; type: cell-based; settings: 0-10 μM rifampicin

- Cyp2A337 gene expression [1]: upregualted
- Cyp1A1 gene expression [2]: upregualted
- Cyp2B6 transcript level (enzyme induction) [3]: induced
- Cyp2D6 transcript level ([4]; qNPA): suppressed
- suppression of Cyp2D6 ([4]; qNPA (Panel a of FIG. 27)): less than 50%
- Cyp2D15 gene expression [5]: upregualted
SMILES: CO[C@H]1/C=C/O[C@@]2(C)Oc3c(C)c(O)c4c(O)c(c(/C=N/N5CCN(C)CC5)c(O)c4c3C2=O)NC(=O)/C(C)=C\C=C\[C@H](C)[C@H](O)[C@@H](C)[C@@H](O)[C@@H](C)[C@H](OC(C)=O)[C@@H]1C [rifampicin]
